Source: ChEMBL document CHEMBL3352399, “Synthesis of aminoalkyl-substituted aurone derivatives as acetylcholinesterase inhibitors” (Bioorg Med Chem, 2015)

Legend:
Acetylcholinesterase = molecular target: T1, Acetylcholinesterase (Mus musculus, UniProt P21836)
T1 sequence (P21836 whole entry): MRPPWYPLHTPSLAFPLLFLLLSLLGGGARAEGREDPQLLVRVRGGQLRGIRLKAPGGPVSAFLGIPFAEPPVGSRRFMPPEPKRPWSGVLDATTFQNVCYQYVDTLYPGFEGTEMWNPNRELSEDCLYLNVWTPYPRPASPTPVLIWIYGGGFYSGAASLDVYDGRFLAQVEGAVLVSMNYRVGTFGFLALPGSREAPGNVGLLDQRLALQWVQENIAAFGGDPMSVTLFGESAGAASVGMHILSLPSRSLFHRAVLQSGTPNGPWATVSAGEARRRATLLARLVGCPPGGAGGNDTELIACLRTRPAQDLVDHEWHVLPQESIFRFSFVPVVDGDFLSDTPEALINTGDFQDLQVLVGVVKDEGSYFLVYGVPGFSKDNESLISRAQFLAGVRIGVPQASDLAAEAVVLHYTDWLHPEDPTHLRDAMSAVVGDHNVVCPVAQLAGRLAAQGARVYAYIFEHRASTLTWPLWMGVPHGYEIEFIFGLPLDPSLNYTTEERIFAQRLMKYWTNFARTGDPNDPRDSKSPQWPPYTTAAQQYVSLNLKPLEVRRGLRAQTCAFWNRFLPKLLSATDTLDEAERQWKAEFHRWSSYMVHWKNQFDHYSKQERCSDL
Description: Inhibition of ICR mouse brain AChE using acetylthiocholine iodide as substrate preincubated for 10 mins before substrate addition by modified Ellman's method

Mus musculus [1] = test: Reversal of scopolamine-induced memory deficit in ICR mouse assessed as latency time at 0.5 mg/kg, ip administered 30 min before acquisition trial by passive avoidance test (Rvb =271.0 +/- 14.49 seconds); assay type: functional; settings: route intraperitoneal
Mus musculus [2] = test: Reversal of scopolamine-induced memory deficit in ICR mouse assessed as latency time at 1 mg/kg, po administered 30 min before acquisition trial by passive avoidance test (Rvb =271.0 +/- 14.49 seconds); assay type: functional
Mus musculus [3] = test: Toxicity in ICR mouse assessed as behavioral changes measured as latency time during acquisition trial at 0.5 to 5 mg/kg, po administered 30 min before acquisition trial by passive avoidance test; assay type: organism-based; set-up: dose 0.5-5 mg/kg, route oral; settings: in vivo, 0.5 h
Mus musculus [4] = test: Reversal of scopolamine-induced memory deficit in ICR mouse assessed as latency time at 5 mg/kg, po administered 30 min before acquisition trial by passive avoidance test (Rvb =271.0 +/- 14.49 seconds); assay type: functional
Mus musculus [5] = test: Reversal of scopolamine-induced memory deficit in ICR mouse assessed as latency time at 2 mg/kg, po administered 30 min before acquisition trial by passive avoidance test (Rvb =271.0 +/- 14.49 seconds); assay type: functional

Compound | IC50 (Acetylcholinesterase) [µM] | further results
COc1ccc(/C=C2\Oc3cc(OCCN4CCCC4)ccc3C2=O)cc1 | 2.38 | –
COc1ccccc1/C=C1\Oc2cc(OCCCN3CCCC3)ccc2C1=O | 5.93 | –
COc1cccc(/C=C2\Oc3cc(OCCN4CCCCC4)ccc3C2=O)c1 | 1.15 | –
COc1ccc(/C=C2\Oc3cc(OCCCCN4CCCCC4)ccc3C2=O)cc1OC | 1.52 | –
COc1ccc(/C=C2\Oc3cc(OCCCN4CCCC4)ccc3C2=O)cc1 | 3.31 | –
COc1cccc(/C=C2\Oc3cc(OCCCN4CCCC4)ccc3C2=O)c1OC | 1.05 | –
COc1ccc(/C=C2\Oc3cc(OCCCN4CCCC4)ccc3C2=O)cc1OC | 1.03 | –
COc1cccc(/C=C2\Oc3cc(OCCN4CCCC4)ccc3C2=O)c1OC | 0.99 | –
COc1ccc(OC)c(/C=C2\Oc3cc(OCCN4CCCC4)ccc3C2=O)c1 | 1.49 | –
O=C1/C(=C/c2ccc(O)c(O)c2)Oc2cc(O)ccc21 [SULFURETIN] | 699 | –
CCN(CC)CCOc1ccc2c(c1)O/C(=C\c1ccc(O)cc1)C2=O | 35.5 | –
COc1cc(/C=C2\Oc3cc(OCCN4CCCC4)ccc3C2=O)cc(OC)c1 | 4.81 | –
COc1ccc(/C=C2\Oc3cc(OCCN4CCCCC4)ccc3C2=O)cc1OC.Cl | 0.4 | Time (Mus musculus [1]): 88.9 s; Time (Mus musculus [2]): 242.5 s; Activity (Mus musculus [3]): Non-toxic; Time (Mus musculus [4]): 206.8 s; Time (Mus musculus [5]): 222.4 s
COc1ccc(/C=C2\Oc3cc(OCCN4CCCC4)ccc3C2=O)c(OC)c1 | 1.61 | –
COc1ccc(/C=C2\Oc3cc(OCCCCCN4CCCCC4)ccc3C2=O)cc1OC | 1.26 | –
COc1ccccc1/C=C1\Oc2cc(OCCN3CCCC3)ccc2C1=O | 2.87 | –
COc1ccccc1/C=C1\Oc2cc(OCCN3CCCCC3)ccc2C1=O | 2.52 | –

Compound | IC50 (Acetylcholinesterase) [µM] | further results
O=C1/C(=C/c2ccc(O)cc2)Oc2cc(OCCN3CCOCC3)ccc21 | 186 | –
COc1cccc(/C=C2\Oc3cc(OCCN4CCCC4)ccc3C2=O)c1 | 1.61 | –
COc1cccc(/C=C2\Oc3cc(OCCCN4CCCC4)ccc3C2=O)c1 | 4.2 | –
O=C1/C(=C/c2ccc(O)cc2)Oc2cc(OCCN3CCCCC3)ccc21 | 13.5 | –
O=C1/C(=C/c2ccc(O)cc2)Oc2cc(OCCN3CCCC3)ccc21 | 11.1 | –
COc1cc(/C=C2\Oc3cc(OCCN4CCCC4)ccc3C2=O)cc(OC)c1OC | 1.56 | –
COc1ccc(/C=C2\Oc3cc(OCCN4CCCC4)ccc3C2=O)cc1OC | 0.75 | –
COc1ccc(OC)c(/C=C2\Oc3cc(OCCCN4CCCC4)ccc3C2=O)c1 | 4.74 | –
COc1cc(/C=C2\Oc3cc(OCCCN4CCCC4)ccc3C2=O)cc(OC)c1 | 4.63 | –
COc1ccc(/C=C2\Oc3cc(OCCN4CCCC4)ccc3C2=O)c(OC)c1OC | 13.7 | –
COc1cccc(/C=C2\Oc3cc(OCCCN4CCCCC4)ccc3C2=O)c1 | 0.75 | –
COc1ccc(/C=C2\Oc3cc(OCCCN4CCCC4)ccc3C2=O)c(OC)c1 | 1.66 | –
COc1ccc2c3c1O[C@H]1C[C@@H](O)C=C[C@@]31CCN(C)C2 [GALANTAMINE] | – | Time (Mus musculus [2]): 212.2 s
COc1ccc(/C=C2\Oc3cc(OCCCN4CCCCC4)ccc3C2=O)cc1OC | 0.89 | –
COc1cc(/C=C2\Oc3cc(OCCN4CCCCC4)ccc3C2=O)cc(OC)c1OC | 1.12 | –
COc1ccc(/C=C2\Oc3cc(OCCN4CCCCC4)ccc3C2=O)cc1 | 0.9 | –
